This note sets out measurements from ChEMBL document CHEMBL5143554, “Discovery of phenylpyrrolidine derivatives as a novel class of retinol binding protein 4 (RBP4) reducers” (Bioorg Med Chem, 2022).

Structures are written as SMILES.

As a reminder, the IC50 is the concentration that gives 50% inhibition. In general, bioavailability refers to dose-corrected exposure relative to a reference, in per cent. For orientation: Cmax means the maximum level reached in the sampled fluid or tissue. As a reminder, the AUC is the area under the concentration-time curve, a measure of exposure.

Series [1] can be described thus: Inhibition of His-tagged mouse RBP4- biotin immobilized TTR (unknown origin) protein-protein interaction in presence of retinol by ELISA.
A short description of series [2]: Inhibition of His-tagged human RBP4- biotin immobilized TTR (unknown origin) protein-protein interaction in presence of retinol by ELISA. Background: ELISA stands for enzyme-linked immunosorbent assay.
The nature of series [3]: Reduction in blood RBP4 level in C57BL/6J mouse assessed as RBP4 leve in blood at 0.3 mg/kg, po after 24 hrs by ELISA (reference value: 100 +/- 3.9%). The class given is functional. Also on record: scale not given: the % may be the effect or the level left.
Series [4] in a line: Reduction in blood RBP4 level in C57BL/6J mouse assessed as RBP4 leve in blood at 10 mg/kg, po after 4 hrs by ELISA (reference value: 100%). The class given is functional. Also on record: scale not given: the % may be the effect or the level left.
The nature of series [5]: Reduction in blood RBP4 level in C57BL/6J mouse assessed as RBP4 leve in blood at 10 mg/kg, po after 7 hrs by ELISA (reference value: 100%). The class given is functional. Also on record: scale not given: the % may be the effect or the level left.
Series [6] can be described thus: Oral bioavilability in ICR mouse at 1 mg/kg. The class given is ADME, organism-based. Conditions: in vivo.
A short description of series [7]: Reduction in blood RBP4 level in C57BL/6J mouse assessed as RBP4 leve in blood at 1 mg/kg, po after 4 hrs by ELISA (reference value: 100 +/- 9.8%). It is filed as functional. Also on record: scale not given: the % may be the effect or the level left.
Series [8] is described as follows: Reduction in blood RBP4 level in C57BL/6J mouse assessed as RBP4 leve in blood at 1 mg/kg, po after 24 hrs by ELISA (reference value: 100 +/- 9.8%). The class given is functional. Also on record: scale not given: the % may be the effect or the level left.
A further series concerns Mus musculus. Nature of the series: Reduction in blood RBP4 level in C57BL/6J mouse assessed as RBP4 leve in blood at 0.3 to 10 mg/kg, po after 4 to 24 hrs hrs by ELISA (reference value: 100%). The class given is functional, organism-based. Conditions: dose 0.3-10 mg/kg, time 4-24 hrs, DDE = dose-dependent effect.
Series [9] in a line: Reduction in blood RBP4 level in C57BL/6J mouse assessed as RBP4 leve in blood at 3 mg/kg, po after 4 hrs by ELISA (reference value: 100 +/- 12%). It is filed as functional. Also on record: scale not given: the % may be the effect or the level left.
Series [10] can be described thus: Cmax in ICR mouse at 1 mg/kg, po. It is filed as ADME, organism-based. Also on record: dose 1 mg/kg, route po. As to conditions: in vivo.
The nature of series [11]: Reduction in blood RBP4 level in C57BL/6J mouse assessed as RBP4 leve in blood at 3 mg/kg, po after 7 hrs by ELISA (reference value: 100 +/- 12%). The class given is functional. Also on record: scale not given: the % may be the effect or the level left.
Series [12] is described as follows: Reduction in blood RBP4 level in C57BL/6J mouse assessed as RBP4 leve in blood at 3 mg/kg, po after 24 hrs by ELISA (reference value: 100 +/- 12%). It is filed as functional. Also on record: scale not given: the % may be the effect or the level left.
The nature of series [13]: Reduction in blood RBP4 level in C57BL/6J mouse assessed as RBP4 leve in blood at 0.3 mg/kg, po after 7 hrs by ELISA (reference value: 100 +/- 3.9%). Also on record: scale not given: the % may be the effect or the level left. It is filed as functional.
A short description of series [14]: AUC in ICR mouse at 1 mg/kg, po. It is filed as ADME, organism-based. Also on record: dose 1 mg/kg, route po. Conditions: in vivo.
Series [15] in a line: Reduction in blood RBP4 level in C57BL/6J mouse assessed as RBP4 leve in blood at 1 mg/kg, po after 7 hrs by ELISA (reference value: 100 +/- 9.8%). The class given is functional. Also on record: scale not given: the % may be the effect or the level left.
The nature of series [16]: Reduction in blood RBP4 level in C57BL/6J mouse assessed as RBP4 leve in blood at 0.3 mg/kg, po after 4 hrs by ELISA (reference value: 100 +/- 3.9%). Also on record: scale not given: the % may be the effect or the level left. The class given is functional.
Series [17] can be described thus: Reduction in blood RBP4 level in C57BL/6J mouse assessed as RBP4 leve in blood at 10 mg/kg, po after 24 hrs by ELISA (reference value: 100%). It is filed as functional. Also on record: scale not given: the % may be the effect or the level left.

As for `O=C(O)C1CCN(c2cc(C(F)(F)F)cc(C(F)(F)F)c2)C1` (racemic), the values for the IC50 in series [1] and in series [2] were 5900 nM and 1000 nM, respectively.
On the same counts, the results for `O=C(O)COC1CCN(c2cccc(C(F)(F)F)c2F)C1` (racemic) are 1500 nM and 240 nM.
As to `O=C(O)COC1CCN(c2cc(F)cc(C(F)(F)F)c2)C1` (racemic), the IC50 in [1] stood at 1200 nM; in [2], 190 nM.
On the same counts, the results for `O=C(O)CCc1cnc(-c2cc(C(F)(F)F)cc(C(F)(F)F)c2)o1` are above 30000 nM and 6000 nM.
For `FC(F)(F)c1cc(N2CCC(OCc3nnn[nH]3)C2)cc(C(F)(F)F)c1` (racemic) the same measures were 270 nM and 48 nM.
As for `COc1cc(N2CCC(OCC(=O)O)C2)cc(C(F)(F)F)c1` (racemic), the concentration for half-maximal inhibition (IC50) in [1] was 870 nM; in series [2], 82 nM.
Regarding `O=C(O)CO[C@H]1CCN(c2cc(C(F)(F)F)cc(C(F)(F)F)c2)C1`, the Activity was 75% in [3]; 39.5% in series [4]; 39.6% in series [5]; 51.6% in [7]; 53% in series [8]; “Dde” with Mus musculus. The Activity was determined as 50.4% in [9]; 41.5% in [11]; 43.6% in series [12]; 56.6% in series [13]; 42.4% in series [15]; 64.6% in series [16]. The Activity in series [17] is 37.5%. The same molecule displayed a bioavailability in [6] of 58%. Also, the 50% inhibitory concentration (IC50) in [1] worked out at 110 nM; in series [2] it was 28 nM. The same molecule gave a peak concentration (Cmax) in series [10] of 2910 ng/mL. For the same molecule, in series [14], the area under the curve (AUC) was found to be 22000 ng·h/mL.
With `O=C(O)CO[C@@H]1CCN(c2cc(C(F)(F)F)cc(C(F)(F)F)c2)C1`, the Activity is listed as 42.2% in series [4], 40.5% in series [5] and 38.6% in series [17]. Moreover, the bioavailability in series [6] came out at 51%. The IC50 in series [1] amounted to 130 nM; in series [2], 21 nM. The highest concentration (Cmax) in [10] came to 2920 ng/mL. In addition, the AUC in [14] turned out to be 17900 ng·h/mL.
`O=C(O)COC1CCN(c2ccc(F)c(C(F)(F)F)c2)C1` (racemic): the IC50 in series [1] stood at 1600 nM; in series [2], 230 nM.
For `O=C(O)CCc1ncc(-c2cc(C(F)(F)F)cc(C(F)(F)F)c2)o1` the same measures were 1200 nM and 130 nM.
Turning to `O=C(O)CCC1CN(c2cc(C(F)(F)F)cc(C(F)(F)F)c2)C1`, the figures for the 50% inhibitory concentration (IC50) in [1] and in series [2] were 740 nM and 40 nM, respectively.
On the same counts, the results for `COC(=O)CO[C@H]1CCN(c2cc(C(F)(F)F)cc(C(F)(F)F)c2)C1` are 200 nM and 150 nM.
On the same counts, the results for `O=C(O)CC1CCN(c2cc(C(F)(F)F)cc(C(F)(F)F)c2)C1` (racemic) are 300 nM and 42 nM.
For `O=C(O)COC1CCN(c2cc(C(F)(F)F)cc(C(F)(F)F)c2)C1` (racemic) the same measures were 100 nM and 16 nM.
Turning to `O=C(O)CCC1CCN(c2cc(C(F)(F)F)cc(C(F)(F)F)c2)C1` (racemic), the concentration for half-maximal inhibition (IC50) in series [1] was determined as 220 nM; in series [2] it was 51 nM.
With `O=C(O)CCc1nc(-c2cc(C(F)(F)F)cc(C(F)(F)F)c2)co1`, the IC50 in series [1] is 420 nM; in series [2], 24 nM.
Turning to `O=C(O)CCC1CCN(c2cc(C(F)(F)F)cc(C(F)(F)F)c2)CC1`, the IC50 was 3800 nM in [1] and 270 nM in series [2].
Regarding `O=C(O)COC1CCN(c2cccc(C(F)(F)F)c2)C1` (racemic), the results for the half-maximal inhibitory concentration (IC50) in series [1] and in [2] were 2400 nM and 520 nM, respectively.
For `O=C(O)COC1CCN(c2cc(Cl)cc(C(F)(F)F)c2)C1` (racemic) the same measures were 420 nM and 96 nM.
